According to patent US7419984B2, “Pyrimidines and uses thereof” (Cell Therapeutics, Inc., priority 2002, dated 2008):

What follows are compounds tested against T1, human LPAAT-β (Homo sapiens, UniProt O15120) (assay: LPAAT-β cell-free assay). Conditions: Sf9 cell membrane overexpressing recombinant LPAAT-β.
T1 construct: the full-length human LPAAT-β cDNA was amplified by PCR; poly-histidine tag (N); made in house; host or cells: Sf9 insect cells (baculovirus, pFastBac HTc); the membrane fraction was used as the enzyme
T1 sequence (O15120 24-278): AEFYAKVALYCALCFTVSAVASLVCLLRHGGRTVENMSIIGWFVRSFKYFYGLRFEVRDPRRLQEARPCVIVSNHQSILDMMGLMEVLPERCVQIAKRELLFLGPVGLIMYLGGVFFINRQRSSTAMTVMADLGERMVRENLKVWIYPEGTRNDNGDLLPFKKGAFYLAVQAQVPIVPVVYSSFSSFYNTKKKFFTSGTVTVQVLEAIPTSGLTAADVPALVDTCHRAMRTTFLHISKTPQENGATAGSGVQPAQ
Type: biochemical
Method in brief: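 Membranes from Sf9 cells expressing His/myc-tagged full-length human LPAAT-β were used in HEPES-saline pH 7.5 with 1 mg/ml BSA. Compound was added from a 200 μM DMSO stock, and reaction with 18:1-CoA and sn-1-18:1 lysoPA (1 mM stocks) ran 25 min at RT. Released CoA was detected with DTNB at 405 nm; a radiometric variant used 200 μM [14C]18:1-CoA and 200 μM lysoPA.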

Compound | IC50 | LPAAT-β cell-free assay (IC50, μM)
Cc1ccc(Cl)cc1-c1cc(Nc2ccc(Br)cc2)ncn1 [Example 172, (4-Bromo-phenyl)-[6-(5-chloro-2-methyl-phenyl)-pyrimidin-4-yl]-amine] | 45 nM | 
COc1ccc(Br)cc1-c1cc(Nc2ccc(Br)cc2)nc(N)n1 [Example 162, 6-(5-Bromo-2-methoxy-phenyl)-N*4*-(4-bromo-phenyl)-pyrimidine-2,4-diamine] | 36 nM | 
Nc1nc(Nc2ccc(C(F)(F)F)cc2)cc(-c2cccc(Br)c2)n1 [Example 119, 6-(3-Bromo-phenyl)-N*4*-(4-trifluoromethyl-phenyl)-pyrimidine-2,4-diamine] | 610 nM | 
CC(=O)c1ccc(Nc2cc(-c3cc(Cl)ccc3C)nc(N)n2)cc1 [Example 123, 1-{4-[2-amino-6-(5-chloro-2-methylphenyl)pyrimidin4-ylamino]phenyl}ethanone] | 150 nM | 
CCOc1ccc(Br)cc1-c1cc(Nc2ccc(C)c(C)c2)nc(N)n1 [Example 132, 6-(5-Bromo-2-ethoxy-phenyl)-N*4*-(3,4-dimethyl-phenyl)-pyrimidine-2,4-diamine] | 140 nM | 
Cc1ccc(Cl)cc1-c1cc(Nc2ccc(CCCO)cc2)nc(N)n1 [Example 109, 3-{4-[2-Amino-6-(5-Chloro-2-methyl-phenyl)-pyrimidin-4-ylamino]-phenyl}-propan-1-ol] | 850 nM | 
Nc1nc(Nc2ccc(Cl)cc2)cc(-c2cc(Cl)ccc2Cl)n1 [Example 20, N*4*-(4-Chloro-phenyl)-6-(2,5-dichloro-phenyl)-pyrimidine-2,4-diamine] | 20 nM | 
Nc1nc(Nc2ccc(Cl)cc2)cc(-c2ccccc2C(F)(F)F)n1 [Example 105, N*4*-(4-Chloro-phenyl)-6-(2-trifluoromethyl-phenyl)-pyrimidine-2,4-diamine] | 1800 nM | 
CCc1ccc(Cl)cc1-c1cc(Nc2ccc(Br)cc2)nc(N)n1 [Example 163, N*4*-(4-Bromo-phenyl)-6-(5-chloro-2-ethyl-phenyl)-pyrimidine-2,4-diamine] | 310 nM | 
Nc1nc(Nc2ccc(C(F)(F)F)cc2)cc(-c2cc(Cl)cc(Cl)c2)n1 [Example 112, 6-(3,5-Dichloro-phenyl)-N*4*-(4-trifuoromethyl-phenyl)-pyrimidine-2,4-diamine] | 640 nM | 
COc1ccc(Cl)cc1-c1cc(Nc2ccc3cn[nH]c3c2)nc(C)n1 [Example 40, [6-(5-Chloro-2-methoxy-phenyl)-2-methyl-pyrimidin4-yl]-(1H-indazol-6-yl)-amine] | 14 nM | 
Cc1ccc(Cl)cc1-c1cc(Nc2ccc(C(O)C(F)(F)F)cc2)nc(N)n1 (centres unmarked) [Example 103, 1-{4-[2-Amino-6-(5-chloro-2-methyl-phenyl)-pyrimidin4-ylamino]-phenyl}-2,2,2-trifluoro-ethanol] | 54 nM | 
COc1ccc(Cl)cc1-c1nc(N)cc(Nc2ccc3cn[nH]c3c2)n1 [Example 37, 2-(5-Chloro-2-methoxy-phenyl)-N-(1H-indazol-6-yl)-pyrimidine4,6-diamine] | 2100 nM | 
Cc1ccc(Cl)cc1-c1cc(Nc2ccc(Br)cc2)nc(N)n1 [Example 30, N*4*-(4-Bromo-phenyl)-6-(5-chloro-2-methyl-phenyl)-pyrimidine-2,4-diamine] | 34 nM | 
Nc1nc(Nc2ccc(Br)cc2)cc(-c2cc(Cl)cc(Cl)c2Cl)n1 [Example 99, N*4*-(4-Bromo-phenyl)-6-(2,3,5-trichloro-phenyl)-pyrimidine-2,4-diamine] | 130 nM | 
CCOc1ccc(Br)cc1-c1cc(Nc2ccc(C(F)(F)F)nc2)nc(N)n1 [Example 128, 6-(5-bromo-2-ethoxyphenyl)-N*4*-(6-trifluoromethylpyridin-3-yl)-pyrimidine-2,4-diamine] | 190 nM | 
CCc1ccc(Cl)cc1-c1cc(Nc2ccc(Cl)cc2)nc(N)n1 [Example 167, 6-(5-Chloro-2-ethyl-phenyl)-N*-4*-(4-chloro-phenyl)-pyrimidine-2,4-diamine] | 180 nM | 
COC(=O)c1ccc(Nc2cc(-c3cc(Cl)ccc3OC)nc(N)n2)cc1 [Example 9, 4-[2-Amino-6-(5-chloro-2-methoxy-phenyl)-pyrimidin-4-ylamino]-benzoic acid methyl ester] | 600 nM | 
Nc1nc(Nc2ccc(C(F)(F)F)cc2)cc(-c2cc(Cl)cc(Cl)c2Cl)n1 [Example 102, 6-(2,3,5-trichloro-phenyl) N*4*-(4-trifluoromethyl-phenyl)-pyrimidine-2,4-diamine] | 500 nM | 
Cc1nc(Nc2ccc(Cl)cc2)cc(-c2cc(Cl)ccc2C)n1 [Example 42, [6-(5-Chloro-2-methyl-phenyl)-2-methyl-pyrimidin-4-yl]-(4-chloro-phenyl)-amine] | 10 nM | 
CCOc1ccc(Cl)cc1-c1cc(Nc2ccc(CCCC(=O)O)cc2)nc(N)n1 [Example 95, 4-{4-[2-Amino-6-(5-chloro-2-ethoxy-phenyl)-pyrimidin4-ylamino]-phenyl}-butyric acid] | 310 nM | 

Compound | IC50 | LPAAT-β cell-free assay (IC50, μM)
N#Cc1ccc(Nc2cc(-c3cc(Cl)ccc3Cl)nc(N)n2)cc1 [Example 24, 4-[2-Amino-6-(2,5-dichloro-phenyl)-pyrimidin-4-ylamino]-benzonitrile] | 29 nM | 
COc1ccc(Br)cc1-c1cc(Nc2ccc(C#N)cc2)nc(N)n1 [Example 160, 4-[2-Amino-6-(5-bromo-2-methoxy-phenyl)-pyrimidin4-ylamino]-benzonitrile] | 38 nM | 
CCOc1ccc(Br)cc1-c1cc(Nc2ccc(CCO)cc2)nc(N)n1 [Example 70, 2-{4-[2-Amino-6-(5-bromo-2-ethoxy-phenyl)-pyrimidin-4-ylamino]-phenyl}-ethanol] | 29 nM | 
Nc1nc(Nc2ccc(Cl)cc2)cc(-c2cc(Cl)cc(Cl)c2Cl)n1 [Example 98, N*4*-(4-Chloro-phenyl)-6-(2,3,5-trichloro-phenyl)-pyrimidine-2,4-diamine] | 91 nM | 
COc1ccc(Cl)cc1-c1cc(Nc2ccc(CO)cc2)nc(N)n1 [Example 10, {4-[2-Amino-6-(5-chloro-2-methoxy-phenyl)-pyrimidin4-ylamino]-phenyl}-methanol] | 120 nM | 
CCOc1ccc(Cl)cc1-c1cc(Nc2ccc(C(F)(F)F)cc2)nc(N)n1 [Example 56, 6-(5-Chloro-2-ethoxy-phenyl)-N*4*-(4-trifluoromethyl-phenyl)-pyrimidine-2,4-diamine] | 70 nM | 
COc1ccc(Cl)cc1-c1nc(N)nc(Nc2ccc3cn[nH]c3c2)c1C [Example 51, 6-(5-Chloro-2-methoxy-phenyl)-5-methyl-N*4*-(1H-indazol-6-yl)-pyrimidine-2,4-diamine] |  | Lessactive
CCOc1ccc(Cl)cc1-c1cc(Nc2ccc(OCCO)cc2)nc(N)n1 [Example 90, 2-{4-[2-Amino-6-(5-chloro-2-ethoxy-phenyl)-pyrimidin-4-ylamino]-phenoxy}-ethanol] | 780 nM | 
Cc1ccc(Nc2cc(-c3cc(Cl)ccc3C)nc(N)n2)cc1 [Example 26, 6-(5-Chloro-2-methyl-phenyl)-N*4*-p-tolyl-pyrimidine-2,4-diamine] | 94 nM | 
CCc1ccc(Cl)cc1-c1cc(Nc2ccc(CCO)cc2)nc(N)n1 [Example 175, 2-{4-[2-amino-6-(5-chloro-2-ethyl-phenyl)-pyrimidin4-ylamino]-phenyl}-ethanol] | 100 nM | 
CCOc1ccc(Br)cc1-c1cc(Nc2ccc(C(O)C(F)(F)F)cc2)nc(N)n1 (centres unmarked) [Example 129, 1-{4-[2-Amino-6-(5-bromo-2-ethoxy-phenyl)-pyrimidin4-ylamino]-phenyl}-2,2,2-trifluoro-ethanol] | 14 nM | 
Nc1nc(Nc2ccc(Cl)cc2)cc(-c2cc(Br)ccc2OCc2ccccc2)n1 [Example 146, 6-(2-Benzyloxy-5-bromo-phenyl)-N*4*-(4-chloro-phenyl)-pyrimidine-2,4-diamine] | 3 nM | 
CCOc1ccc(Br)cc1-c1cc(Nc2ccc(C(=O)OC)cc2)nc(N)n1 [Example 61, 4-[2-Amino-6-(5-bromo-2-ethoxy-phenyl)-pyrimidin-4-ylamino]-benzoic acid methyl ester] | 350 nM | 
Nc1nc(Nc2ccc(Br)cc2)cc(-c2cc(Br)ccc2OCC(F)(F)F)n1 [Example 91, N*4*-(4-Bromo-phenyl)-6-[5-bromo-2-(2,2,2-trifluoro-ethoxy)-phenyl]-pyrimidine-2,4-diamine] | 190 nM | 
Cc1ccc(Cl)cc1-c1cc(Nc2ccc(C#N)cc2)nc(N)n1 [Example 32, 4-[2-Amino-6-(5-chloro-2-methyl-phenyl)-pyrimidin4-ylamino]-benzonitrile] | 38 nM | 
CCCCOc1ccc(Br)cc1-c1cc(Nc2ccc(Cl)cc2)nc(N)n1 [Example 148, 6-(5-Bromo-2-butoxy-phenyl)-N*4*-(4-chloro-phenyl)-pyrimidine-2,4-diamine] | 5 nM | 
Cc1ccc(Cl)cc1-c1cc(Nc2ccc3[nH]nnc3c2)nc(N)n1 [Example 125, N*4*-(1H-Benzotriazol-5-yl)-6-(5-chloro-2-methylphenyl)pyrimidine-2,4-diamine] | 90 nM | 
Cc1ccc(Nc2cc(-c3cc(Cl)ccc3Cl)nc(N)n2)cc1 [Example 15, 6-(2,5-Dichloro-phenyl)-N*4*-p-tolyl-pyrimidine-2,4-diamine] | 50 nM | 
Nc1nc(Nc2ccc(Cl)cc2)cc(-c2cc(Br)ccc2O)n1 [Example 72, 2-[2-Amino-6-(4-chloro-phenylamino)-pyrimidin-4-yl]-4-bromo-phenol] | 450 nM | 
COc1ccc(Cl)cc1-c1cc(Nc2ccc3ncsc3c2)nc(N)n1 [Example 8, N*4*-Benzothiazol-6-yl-6-(5-chloro-2-methoxy-phenyl)-pyrimidine-2,4-diamine] | 270 nM | 
